Patent US12421217B2, “Pyrazine derivative or salt thereof, and use of same” (FUJIFILM Corporation, priority 2019, dated 2025)

How the values were obtained:
[1] = molecular target: T1, recombinant human DHODH (Homo sapiens, UniProt Q02127); assay: Enzyme reaction inhibition test (DHODH enzyme assay, DCIP quenching); type: biochemical; conditions: DCIP absorbance 600 nm, 50 minutes, read-out: Enzyme reaction inhibitory effect (IC50)
T1 construct: DHODH, 31-395 aa, Human, His tag, E. coli, ATGP1615; His tag; purchased ATGen Co. Ltd. ATGP1615; host or cells: E. coli
T1 sequence (Q02127 31-395): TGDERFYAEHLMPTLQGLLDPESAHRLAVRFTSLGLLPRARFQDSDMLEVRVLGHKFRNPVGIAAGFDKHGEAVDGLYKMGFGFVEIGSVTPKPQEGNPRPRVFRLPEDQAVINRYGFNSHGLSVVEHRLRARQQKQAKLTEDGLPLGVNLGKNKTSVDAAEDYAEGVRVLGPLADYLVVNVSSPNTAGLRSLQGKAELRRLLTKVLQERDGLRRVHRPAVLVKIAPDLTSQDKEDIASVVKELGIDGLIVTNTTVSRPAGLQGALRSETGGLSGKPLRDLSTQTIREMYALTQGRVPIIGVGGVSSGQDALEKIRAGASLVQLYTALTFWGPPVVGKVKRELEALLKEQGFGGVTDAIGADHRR
Procedure: The DHODH enzyme assay was carried out with reference to “Benjamin Bader, Wolfgang Knecht, Markus Fries, and Monika Loffler. Expression, Purification, and Characterization of Histidine-Tagged Rat and Human Flavoenzyme Dihydroorotate Dehydrogenase. Protein Expression and Purification, 1998, 13, 414-422.”
The DHODH activity was evaluated using an enzyme assay system that is coupled with an assay in which a blue coloring agent 2,6-dichlorophenol indophenol (DCIP, available from MP Biomedicals, LLC, MP150118) is quenched. Purified recombinant human DHODH (DHODH, 31-395 aa, Human, His tag, E. coli, ATGP1615) was purchased from ATGen Co. Ltd. The enzyme assay was carried out in a 384-well plate using a buffer solution containing 100 mmol/L Hepes (available from Dojindo Laboratories, 342-01375), 400 mmol/L NaCl (available from FUJIFILM Wako Pure Chemical Corporation, 191-01665), 10% Glycerol (available from FUJIFILM Wako Pure Chemical Corporation, 075-00616), 0.05% Triton X-100 (available from Sigma-Aldrich Co., LLC, T8787-100ML), 0.2 mmol/L Ubiquinone-10 (available from FUJIFILM Wako Pure Chemical Corporation, 216-00761), 0.1 mmol/L DHO (L-dihydroorotic acid, available from Sigma-Aldrich Co., LLC, D7128), 0.5% DMSO (dimethylsulfoxide, available from FUJIFILM Wako Pure Chemical Corporation, 047-29353), 0.175 μg/mL DHODH, and 0.12 mmol/L DCIP and having a pH adjusted to 8.0 by adding 5 mol/L potassium hydroxide (available from FUJIFILM Wako Pure Chemical Corporation, 168-21815). A test compound with a predetermined concentration was added using Biomek NX (available from Beckman Coulter Inc.), and the enzymatic reaction was started by adding the substrate. The enzyme activity was assessed by measuring the decrease in DCIP absorbance (600 nm) for 50 minutes using an EnVision plate-reading spectrophotometer (available from PerkinElmer, Inc.).
The enzyme reaction inhibition rate at each test compound concentration was determined, and the 50% enzyme reaction inhibition concentration [IC50 (nmol/L)] was calculated using XLfit. Enzyme reaction inhibition rate (%)=(amount of luminescence in test compound-added well)/(amount of luminescence in DMSO-added well)×100
The abbreviations in the table have the following meanings. • A: IC50 value<10 nmol/L • B: 10 nmol/L≤IC50 value<100 nmol/L • C: 100 nmol/L≤IC50 value

[2] = test system: human myeloid leukemia cell line HL60; assay: Cell growth test (Cell Titer Glo); type: cell-based; conditions: HL-60, 72 h, HL60 cells, 3 days, read-out: Cell growth inhibitory effect (GI50)
Procedure: The cell growth test was carried out using the human myeloid leukemia cell line HL60 (available from ATCC, CRL-240). As a culture medium of HL60 cells, RPMI 1640 (available from FUJIFILM Wako Pure Chemical Corporation, 189-02025) supplemented with 10% fetal bovine serum (available from Thermo Fisher Scientific, Inc., 10437-028), and 1% penicillin-streptomycin (10,000 U/mL, available from Thermo Fisher Scientific, Inc., 15140-122) was used. HL60 cells were seeded on a 384-well plate (available from Corning Inc., 4588) at a cell density of 1×10^3 cells/20 μL/well. After culturing overnight, 5 μL of the test compound having a predetermined concentration was added, and 3 days later, 25 μL of Cell Titer Glo (registered trademark) Luminescent Cell Viability Assay (available from Promega Corporation, G7573) was added, and then the amount of luminescence was measured using an EnVision plate reader (available from PerkinElmer, Inc.). Since the amount of luminescence is proportional to the intracellular concentration of adenosine triphosphate (ATP), the amount of luminescence was used as an indicator of the number of viable cells. The growth inhibitory concentration for each test compound concentration was calculated by the following expression.
The growth inhibition rate at each test compound concentration was determined, and the 50% growth inhibitory concentration [GI50 (nmol/L)] was calculated using XLfit. Growth inhibition rate (%)=(amount of luminescence in test compound-added well)/(amount of luminescence in DMSO-added well)×100
The abbreviations in the table have the following meanings. • A: GI50 value<100 nmol/L • B: 100 nmol/L≤GI50 value<1,000 nmol/L • C: 1,000 nmol/L≤GI50 value

Structure (SMILES)	IC50 [1] [nM]	GI50 [2] [nM]
COC(=O)c1nc(C2CC2)cnc1Nc1cccc(C2=CCOCC2)c1OCC(F)(F)F [Example 1, methyl 6-cyclopropyl-3-((3-(3,6-dihydro-2H-pyran-4-yl)-2-(2,2,2-trifluoroethoxy)phenyl)amino)pyrazine-2-carboxylate]	≥ 100	100 to 1000
O=C(O)c1nc(C2CC2)cnc1Nc1cccc(C2=CCOCC2)c1COCC(F)(F)F [Example 19-10]	10 to 100	100 to 1000
CCCc1c(Nc2ncc(C3CC3)nc2C(=O)O)cccc1C1=CCOCC1 [Example 19-16]	10 to 100	100 to 1000
O=C(O)c1nc(C2CC2)cnc1Nc1cccc(C2CCOCC2)c1CC(F)(F)F [Example 19-18]	10 to 100	100 to 1000
O=C(O)c1nc(C2CC2)cnc1Nc1cccc(C2CCOCC2)c1CCF [Example 19-19]	10 to 100	≥ 1000
COc1c(Nc2ncc(C3CC3)nc2C(=O)O)cccc1C1=CCOCC1 [Example 19-20]	10 to 100	≥ 1000
CCOc1c(Nc2ncc(C3CC3)nc2C(=O)O)cccc1C1=CCOCC1 [Example 19-21]	10 to 100	100 to 1000
O=C(O)c1nc(C2CC2)cnc1Nc1cccc(C2=CCOCC2)c1F [Example 19-22]	10 to 100	≥ 1000
CCOc1ccc(Nc2ncc(C3CC3)nc2C(=O)O)c(OCC)c1C1=CCOCC1 [Example 19-23]	10 to 100	100 to 1000
CCOc1ccc(Nc2ncc(C3CC3)nc2C(=O)O)cc1C1=CCOCC1 [Example 19-24]	10 to 100	100 to 1000
O=C(O)c1nc(C2CC2)cnc1Nc1ccc(F)c(C2=CCOCC2)c1F [Example 19-26]	10 to 100	≥ 1000
O=C(O)c1nc(C2CC2)cnc1Nc1cccc(C2=CCOCC2)c1CCCF [Example 19-27]	10 to 100	100 to 1000
O=C(O)c1nc(C2CC2)cnc1Nc1cccc(C2CCOCC2)c1CC(F)F [Example 19-29]	10 to 100	< 100
CC(C)c1cnc(Nc2cccc(C3=CCOCC3)c2OCC(F)(F)F)c(C(=O)O)n1 [Example 19-31]	10 to 100	100 to 1000
CCc1cnc(Nc2cccc(C3=CCOCC3)c2OCC(F)(F)F)c(C(=O)O)n1 [Example 19-32]	10 to 100	100 to 1000
Cc1cnc(Nc2cccc(C3=CCOCC3)c2OCC(F)(F)F)c(C(=O)O)n1 [Example 19-33]	10 to 100	≥ 1000
CCOC(=O)c1nc(C2CC2)cnc1Nc1cccc(C2=CCOCC2)c1OCC(F)(F)F [Example 20, ethyl 6-cyclopropyl-3-((3-(3,6-dihydro-2H-pyran-4-yl)-2-(2,2,2-trifluoroethoxy)phenyl)amino)pyrazine-2-carboxylate]	≥ 100	100 to 1000
CC(C)OC(=O)c1nc(C2CC2)cnc1Nc1cccc(C2=CCOCC2)c1OCC(F)(F)F [Example 21, isopropyl 6-cyclopropyl-3-((3-(3,6-dihydro-2H-pyran-4-yl)-2-(2,2,2-trifluoroethoxy)phenyl)amino)pyrazine-2-carboxylate]	≥ 100	≥ 1000

More lines, now with the values ahead:

IC50 [1] [nM]	GI50 [2] [nM]	Structure (SMILES)
< 10	< 100	O=C(O)c1nc(C2CC2)cnc1Nc1cc(F)cc(C2=CCOCC2)c1OCC(F)(F)F [Example 5, 6-cyclopropyl-3-((3-(3,6-dihydro-2H-pyran-4-yl)-5-fluoro-2-(2,2,2-trifluoroethoxy)phenyl)amino) pyrazine-2-carboxylic acid]
< 10	< 100	O=C(O)c1nc(C2CC2)cnc1Nc1cc(F)cc(C2CCOCC2)c1OCC(F)(F)F [Example 6, 6-cyclopropyl-3-((5-fluoro-3-(tetrahydro-2H-pyran-4-yl)-2-(2,2,2-trifluoroethoxy)phenyl)amino) pyrazine-2-carboxylic acid]
< 10	< 100	O=C(O)c1nc(C2CC2)cnc1Nc1cc(F)cc(C2CCOCC2)c1OC(F)F [Example 11, 6-cyclopropyl-3-((2-(difluoromethoxy)-5-fluoro-3-(tetrahydro-2H-pyran-4-yl)phenyl)amino)pyrazine-2-carboxylic acid]
< 10	< 100	CCc1c(Nc2ncc(C3CC3)nc2C(=O)O)cccc1C1CCOCC1 [Example 12, 6-cyclopropyl-3-((2-ethyl-3-(tetrahydro-2H-pyran-4-yl)phenyl)amino)pyrazine-2-carboxylic acid]
< 10	100 to 1000	O=C(O)c1nc(C2CC2)cnc1Nc1cccc(C2=CCOCC2)c1OC(F)F [Example 14, 6-cyclopropyl-3-((2-(difluoromethoxy)-3-(3,6-dihydro-2H-pyran-4-yl)phenyl)amino)pyrazine-2-carboxylic acid]
< 10	100 to 1000	O=C(O)c1nc(C2CC2)cnc1Nc1cc(F)cc(C2=CCOCC2)c1OC(F)F [Example 19-1]
10 to 100	100 to 1000	CCOc1c(C2=CCOCC2)cc(F)c(F)c1Nc1ncc(C2CC2)nc1C(=O)O [Example 19-2]
< 10	100 to 1000	O=C(O)c1nc(C2CC2)cnc1Nc1cccc(C2=CCOCC2)c1OCC(F)F [Example 19-3]
10 to 100	100 to 1000	Cc1c(Nc2ncc(C3CC3)nc2C(=O)O)cc(F)cc1C1=CCOCC1 [Example 19-4]
10 to 100	100 to 1000	CCOc1c(Nc2ncc(C3CC3)nc2C(=O)O)cc(F)cc1C1=CCOCC1 [Example 19-5]
10 to 100	100 to 1000	CC(Oc1c(Nc2ncc(C3CC3)nc2C(=O)O)cccc1C1=CCOCC1)C(F)(F)F (stereo not shown) [Example 19-6]
< 10	< 100	O=C(O)c1nc(C2CC2)cnc1Nc1cccc(C2=CCOCC2)c1OCC(F)(F)C(F)(F)F [Example 19-7]
< 10	< 100	O=C(O)c1nc(C2CC2)cnc1Nc1cccc(C2=CCOCC2)c1OCCC(F)(F)F [Example 19-8]
< 10	100 to 1000	O=C(O)c1nc(C2CC2)cnc1Nc1cccc(C2CCOCC2)c1C1CC1 [Example 19-12]
< 10	100 to 1000	CC(C)c1c(Nc2ncc(C3CC3)nc2C(=O)O)cccc1C1CCOCC1 [Example 19-13]
< 10	< 100	CC1=C(c2cccc(Nc3ncc(C4CC4)nc3C(=O)O)c2OCC(F)(F)F)CCOC1 [Example 19-14]
< 10	< 100	O=C(O)c1nc(C2CC2)cnc1Nc1cccc(C2CCOCC2)c1CCC(F)(F)F [Example 19-15]
< 10	100 to 1000	CCCCc1c(Nc2ncc(C3CC3)nc2C(=O)O)cccc1C1CCOCC1 [Example 19-17]
< 10	100 to 1000	CCOc1c(Nc2ncc(C3CC3)nc2C(=O)O)ccc(F)c1C1=CCOCC1 [Example 19-25]
< 10	< 100	O=C(O)c1nc(C2CC2)cnc1Nc1cccc(C2CCOCC2)c1CCC(F)F [Example 19-28]
